Laboratory results reported in patent US5380668A (University of Utah Research Foundation, priority 1993, dated 1995).
Where a SMILES comes first, the peptide text is derived from it. [ ]: non-standard residue; d: D form. βAla = NCCC(=O)O

Tested on: second monoclonal antibody against hCG
Test: not given
Settings: not given

Krel (relative binding affinity)	Compound
1.3	CC[C@H](C)[C@H](NC(=O)[C@@H]1CCCN1C(=O)CNC(=O)[C@H](C)NC(=O)[C@H](CO)NC(=O)CNC(=O)[C@H](CO)NC(=O)CN)C(=O)N[C@@H](Cc1ccc(O)cc1)C(=O)N[C@@H](CC(=O)O)C(=O)N[C@@H](Cc1ccccc1)C(=O)NCC(=O)NCCC(=O)O [SEQ ID NO: 22, Gly--Ser--Gly--Ser--Ala--Gly--Pro--Ile--Tyr--Asp--Phe--Gly--βAla] (H-GSGSAGPIYDFG[βAla]-OH)
1.0	CSCC[C@H](NC(=O)[C@H](Cc1ccc(O)cc1)NC(=O)[C@H](CCC(N)=O)NC(=O)[C@@H]1CCCN1C(=O)CNC(=O)[C@H](C)NC(=O)[C@H](CO)NC(=O)CNC(=O)[C@H](CO)NC(=O)CN)C(=O)N[C@@H](Cc1ccccc1)C(=O)NCC(=O)NCCC(=O)O [SEQ ID NO: 23, Gly--Ser--Gly--Ser--Ala--Gly--Pro--Gln--Tyr--Met--Phe--Gly--βAla] (H-GSGSAGPQYMFG[βAla]-OH)

Continued, compound first:

Compound	Krel (relative binding affinity)
CC(C)[C@H](NC(=O)[C@@H]1CCCN1C(=O)CNC(=O)[C@H](C)NC(=O)[C@H](CO)NC(=O)CNC(=O)[C@H](CO)NC(=O)CN)C(=O)N[C@@H](Cc1ccc(O)cc1)C(=O)N[C@@H](CO)C(=O)N[C@@H](Cc1ccccc1)C(=O)NCC(=O)NCCC(=O)O [SEQ ID NO: 20, Gly--Ser--Gly--Ser--Ala--Gly--Pro--Val--Tyr--Ser--Phe--Gly--βAla] (H-GSGSAGPVYSFG[βAla]-OH)	2.0
CC[C@H](C)[C@H](NC(=O)[C@@H]1CCCN1C(=O)CNC(=O)[C@H](C)NC(=O)[C@H](CO)NC(=O)CNC(=O)[C@H](CO)NC(=O)CN)C(=O)N[C@@H](Cc1ccc(O)cc1)C(=O)N[C@H](C(=O)N[C@@H](Cc1ccccc1)C(=O)NCC(=O)NCCC(=O)O)C(C)C [SEQ ID NO: 19, Gly--Ser--Gly--Ser--Ala--Gly--Pro--Ile--Tyr--Val--Phe--Gly--βAla] (H-GSGSAGPIYVFG[βAla]-OH)	6.6
C[C@H](NC(=O)[C@H](CO)NC(=O)CNC(=O)[C@H](CO)NC(=O)CN)C(=O)NCC(=O)N1CCC[C@H]1C(=O)N[C@@H](CCCNC(=N)N)C(=O)N[C@@H](Cc1ccc(O)cc1)C(=O)N[C@@H](CC(N)=O)C(=O)N[C@@H](Cc1ccccc1)C(=O)NCC(=O)NCCC(=O)O [SEQ ID NO: 21, Gly--Ser--Gly--Ser--Ala--Gly--Pro--Arg--Tyr--Asn--Phe--Gly--βAla] (H-GSGSAGPRYNFG[βAla]-OH)	1.6

Tested on: anti-hCG monoclonal antibody directed against a portion of the β-subunit of hCG
Test: EIA binding of BSA-conjugated peptide with anti-hCG monoclonal antibody
Settings: peptide conjugated to BSA, absorbed on 96-well plate; antibody overnight at 4° C; alkaline phosphatase labeled protein A
Description: The peptide was conjugated through its thiol group to BSA using a heterobifunctional cross-linking reagent (succinimidyl 4-(N-maleimidomethyl)cyclohexane-1-carboxylate). The conjugates were first absorbed on the wells of a ninety-six well plate. Nonspecific binding sites on the surface was masked by unlabeled BSA. […] Alkaline phosphatase labeled protein A was used for the color development.

Compound	binding with anti-hCG antibody (EIA response)
H2 N-Gly-Gly-Arg-Leu-Pro-Gly-Pro-Ser-Asp-Cys-Gly-COOH (H-GGRLPGPSDCG-OH) [EXAMPLE I]	positive results
